Laboratory results as given in patent US8258119B2, “Anti-cancer drugs and uses relating thereto for metastatic malignant melanoma and other cancers” (Kasina Laila Innova Pharmaceuticals, priority 2008, dated 2012).
Values after ≈ are worked out from the molar mass of the structure shown.

What was measured:
B16F0 cells = assay: B16 F0 mouse melanoma cell colony formation assay; assay type: cell-based; conditions: B16F0, 192 h, 8 days, read-out: B16 colony growth inhibition; for inhibition at 100 µg/mL: 100 μg/ml
Description: Clone formation efficiency of the Compound 6 and DTIC was tested by following the procedure described earlier with some modifications (41). Briefly, B16F0 cells were harvested and seeded into 6-well plates (100 cells/ml). The cells were allowed to grow for 2 days and thereafter, the cells were incubated with DMEM containing either 0.1% DMSO or 100 μg/ml DTIC or 50 μg/ml and 100 μg/ml of Compound 6 for further 8 days. Fresh medium containing test agents was replaced at every 24 h. Finally, the wells were washed three times with PBS and fixed in methanol for 15 min. The cells were stained with Giemsa stain and observed under microscope. The image of the stained wells were captured digitally (Kodak Image Station 4000MM, Carestream Health Inc., New Haven, Conn.) and number of colonies were counted and analyzed by using NIH Image J software.

[1] = test system: MCF-7 human breast tumor cells; assay: MTT cell proliferation assay in MCF-7 cells; assay type: cell-based; conditions: MCF7, read-out: 50% of inhibitory concentration, IC50 MCF-7
Description: (§1) MTT [3-(4,5-dimethylthiazol-2-yl)-2,5-diphenyltetrazolium bromide] incorporation based cell proliferation assay was performed using standard procedure with some modifications (38). The cytotoxic efficacy of the test compounds were evaluated in human malignant melanoma A2058 cells by MTT cell proliferation assay kit (Roche Applied Sciences, Germany). The assay was carried out according to the instruction provided by the vendor. Briefly, equal numbers of cells was plated in 96-well flat-bottomed plates in 100 μl of medium and were exposed to either DTIC or its derivative compounds at various concentrations up to 150 μg/ml for a period of three days. Vehicle control culture wells received only a maximum of 0.5% DMSO. Thereafter, 0.5 mg/ml of MTT reagent was added to each well and the microplate was incubated further for 4 h at 37° C. in presence of 5% CO2. Finally, the cells were solubilized by adding solubilizing solution and allowed to incubate at 37° C. overnight. After complete solubilization of the formazan crystals the absorbance was read at 540 nm in a microplate reader (BioRad, USA). The results (mean OD±SD) obtained from quadruplicate wells were used in calculation to determine the inhibition of cell proliferation (50% inhibitory concentration, IC50) of the test compounds.
(§2) Anti-tumor growth potential of Compound 1 and Compound 6 were evaluated in MCF-7 human breast tumor cells, MIA-PaCa2 human pancreas tumor cells and DU145 human prostate tumor cells by using MTT based cell proliferation studies as described earlier (example 19). The results (mean OD±SD) obtained from quadruplicate wells were used in calculation to determine the inhibition of cell proliferation (50% of inhibitory concentration, IC50) of the test compounds (Table 4).

[2] = test system: MIA-PaCa2 human pancreas tumor cells; assay: MTT cell proliferation assay in MIA-PaCa2 cells; assay type: cell-based; conditions: MIA PaCa-2, read-out: 50% of inhibitory concentration, IC50 MIA-PaCa2
Description: as §1, §2

B16 F0 melanoma = B16 F0 melanoma xenograft model of C57B6J mice; assay type: in vivo; conditions: for dose response of tumor growth inhibition: two dose levels (50 and 100 mg/kg), intra-peritoneal
Description: […] mice of 6 weeks age (body weight 18-22 g) were purchased from National Institute of Nutrition (NIN), Hyderabad (India). Animals study protocols were approved by Institutional Ethics Committee (IAEC). All the studies were performed in compliance with the Committee for the Purpose of Control and Supervision of Experiments on Animals (CPCSEA) guidelines and OECD guidelines. Animals were allowed free access to standard feed and provided charcoal filtered and UV exposed water ad libitum. The animals were maintained at a controlled temperature (24-26° C.), humidity (45-70%), and 12 h/12 h of light/dark cycle. To induce the melanoma tumor formation, sub-confluent B16F0 cells were harvested by brief trypsinization and 1×10^6 cells were injected subcutaneously in 0.2 ml phosphate-buffered saline. Drug treatment was started after development of palpable tumors (3-5 days after implantation of the cells). […] After fourteen days of treatment, the animals were sacrificed by CO2 inhalation and tumors were excised and weighed.

[3] = test system: A375 human melanoma cells; assay: LDH leakage cytotoxicity assay in A375 cells; assay type: cell-based; conditions: treatment concentration 100 μg/ml
Description: (§3) From the data obtained from the MTT assay (Table J), compound 1, compound 6 and compound 13 have been selected and their cytotoxicity potential has been further validated in LDH leakage assay. […] Cytotoxicity potential of DTIC and its derivative compounds were evaluated by measuring the leaked lactate dehydrogenase (LDH) into the culture supernatant (LDH Cytotoxicity Detection Roche Applied Sciences, Germany). The leaked LDH is directly proportional to the cell damage done by the cytotoxic compounds. In brief, cells were treated with test compounds at various concentrations and incubated for 48 h. Vehicle control culture wells received only a maximum of 0.5% DMSO. The cell free culture supernatants were mixed with catalyst and dye solution and allowed to incubate for 15 min at room temperature. Finally, the reaction was stopped and the optical density was measured at 492 nm in a microplate reader (BioRad, USA). […]
(§4) Comparative cytotoxicity potential of DTIC and Compound 6 on B16F0 mouse melanoma cells and A375 human melanoma cells were further evaluated by measuring the leaked lactate dehydrogenase (LDH) into the culture supernatant (LDH Cytotoxicity Detection Kit^Plus, Roche Applied Sciences, Germany), following the methodology described earlier (Example 20). […]

[4] = test system: A2058, human malignant melanoma cells; assay: MTT cell proliferation assay in A2058 cells; assay type: cell-based; conditions: A2058, 72 h, three days exposure
Description: as §1

[5] = test system: Human umbilical vein endothelial cells (HUVEC); assay: In vitro capillary formation assay; assay type: cell-based; conditions: HUVEC on Cultrex, 16 hours
Description: In vitro capillary formation assay was performed with Human umbilical vein endothelial cells (HUVEC), cultured on 10 mg/ml basement membrane extract (BME-Cultrex®, R&D Systems, USA) bed. The protocol of in vitro endothelial tube formation assay was the same as described earlier with some modifications (44). Briefly, four hundred microliters of Cultrex was coated at 4° C. in each well of 24-well culture plate and allowed to gel at 37° C. for 1 h. HUVECs were plated at a density of 7.5×10^4 cells per well with […] of DMEM supplemented with 10% fetal bovine serum and 4.5 g/l D-glucose. The cells were then treated with either DTIC or Compound 6 at desired concentration as indicated for 16 hours. Vehicle control cultures received only 0.1% DMSO. Pictures were taken under a Nikon Eclipse TS 100 microscope equipped with a Nikon Coolpix camera.

[6] = test system: DU145 human prostate tumor cells; assay: MTT cell proliferation assay in DU145 cells; assay type: cell-based; conditions: DU-145, read-out: 50% of inhibitory concentration, IC50 DU145
Description: as §1, §2

[7] = test system: B16F0 mouse melanoma cells; assay: LDH leakage cytotoxicity assay in B16F0 cells; assay type: cell-based; conditions: treatment concentration 100 μg/ml
Description: as §3, §4

SMILES	inhibition at 50 µg/mL (B16F0 cells; 50 μg/ml) [%]	inhibition at 100 µg/mL (B16F0 cells) [%]	IC50 [1] [µg/mL]	IC50 [2] [µg/mL]	anti-tumor activity (B16 F0 melanoma; daily intra-peritoneal, fourteen days, tumor weight)	dose response of tumor growth inhibition (B16 F0 melanoma)	% increase in LDH secretion with respect to vehicle treated control in A375 cells [3] [%]	IC50 [4] [µg/mL]	capillary formation [5]	IC50 [6] [µg/mL]	% increase in LDH secretion with respect to vehicle treated control in B16 F0 cells [7] [%]
CN(C)/N=N/c1ccsc1C(=O)O [Compound 6, 3-[(dimethylamino)diazenyl]thiophene-2-carboxylic acid]	55.2	68.7	91.7 (≈ 460 µM)	81.9 (≈ 411 µM)	better anti-tumor activity than DTIC	dose response inhibition at the two dose levels tested	331	53.6 (≈ 269 µM)	inhibition of capillary formation in a dose dependent manner	62.6 (≈ 314 µM)	61.5
CN(C)/N=N/c1[nH]cnc1C(N)=O [DTIC, 5-(3,3-dimethyl-1-trizeno)-imidazole-4-carboxamide, reference compound]		37.6	135 (≈ 742 µM)	203 (≈ 1110 µM)		failed to show statistically significant dose response	246	68.1 (≈ 374 µM)	promoted capillary formation	87.2 (≈ 479 µM)	5.7
